Legend:
[1] = target: T1, human B1R receptor (hB1R) (Homo sapiens, UniProt P46663); assay: Functional investigation on the bradykinin receptor 1 (B1R), FLIPR Ca2+ assay, hB1R cells; type: cell-based
T1 construct: expressed in transfected cells; host or cells: CHO K1 cells
T1 sequence (P46663 1-353): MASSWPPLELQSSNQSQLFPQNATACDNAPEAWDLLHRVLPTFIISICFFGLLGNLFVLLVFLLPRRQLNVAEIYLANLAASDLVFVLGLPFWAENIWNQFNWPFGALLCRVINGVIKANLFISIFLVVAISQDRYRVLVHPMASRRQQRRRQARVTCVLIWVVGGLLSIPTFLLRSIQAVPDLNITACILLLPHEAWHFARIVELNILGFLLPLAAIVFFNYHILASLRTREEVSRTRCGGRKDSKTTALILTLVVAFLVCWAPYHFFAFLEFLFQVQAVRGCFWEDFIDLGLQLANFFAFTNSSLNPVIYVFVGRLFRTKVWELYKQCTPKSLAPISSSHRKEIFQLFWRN
Experimental: (§1) The agonistic or antagonistic action of substances can be quantified on the bradykinin receptor 1 (B1R) of the human and rat species with ectopically expressing cell lines (CHO K1 cells) and with the aid of a Ca^2+-sensitive dyestuff (Fluo-4) in a fluorescent imaging plate reader (FLIPR). The figure in % activation is based on the Ca^2+ signal after addition of Lys-Des-Arg^9-bradykinin (0.5 nM) or Des-Arg^9-bradykinin (100 nM). Antagonists lead to a suppression of the Ca^2+ inflow after addition of the agonist. % inhibition compared with the maximum achievable inhibition is stated.
(§2) The agonistic or antagonistic action of substances can be determined on the bradykinin receptor 1 (B1R) of the human and rat species with the following assay. In accordance with this assay, the Ca^2+ inflow through the channel is quantified with the aid of a Ca^2+-sensitive dyestuff (type Fluo-4, Molecular Probes Europe BV, Leiden Holland) in a fluorescent imaging plate reader (FLIPR, Molecular Devices, Sunnyvale, USA).
(§3) Chinese hamster ovary cells (CHO K1 cells) transfected stably with the human B1R gene (hB1R cells) or the B1R gene of the rat (rB1R cells) are used. For functional studies, these cells are plated out on black 96-well plates with a clear base (BD Biosciences, Heidelberg, Germany or Greiner, Frickenhausen, Germany) in a density of 20,000-35,000 cells/well. The cells are left overnight at 37° C. and 5% CO2 in culture medium (hB1R cells: Nutrient Mixture Ham's F12, Gibco Invitrogen GmbH, Karlsruhe, Germany or DMEM, Sigma-Aldrich, Taufkirchen, Germany; rB1R cells: D-MEM/F12, Gibco Invitrogen GmbH, Karlsruhe, Germany) with 10 vol. % FBS (foetal bovine serum, Gibco Invitrogen GmbH, Karlsruhe, Germany or PAN Biotech GmbH, Aidenbach, Germany). On the following day, the cells are loaded for 60 min at 37° C. with 2.13 μM Fluo-4 (Molecular Probes Europe BV, Leiden Holland) in HBSS buffer (Hank's buffered saline solution, Gibco Invitrogen GmbH, Karlsruhe, Germany) with 2.5 mM probenecid (Sigma-Aldrich, Taufkirchen, Germany) and 10 mM HEPES (Sigma-Aldrich, Taufkirchen, Germany). The plates are then washed 2× with HBSS buffer, and HBSS buffer which additionally contains 0.1% BSA (bovine serum albumin; Sigma-Aldrich, Taufkirchen, Germany), 5.6 mM glucose and 0.05% gelatine (Merck KGaA, Darmstadt, Germany) is added. After a further incubation of 20 minutes at room temperature, the plates are inserted into the FLIPR for the Ca^2+ measurement.
(§4) Alternatively, the plates are washed with buffer A (15 mM HEPES, 80 mM NaCl, 5 mM KCl, 1.2 mM CaCl2, 0.7 mM MgSO4, 2 g/l glucose, 2.5 mM probenecid), buffer A is added and the plates are loaded with 2.5 μM Fluo-4 and 0.025% Pluronic F127 (Sigma-Aldrich, Taufkirchen, Germany). Thereafter, the cells are washed 2× with buffer A and incubated for 30 minutes at room temperature with buffer A, which additionally contains 0.05% BSA and 0.05% gelatine, and thereafter inserted into the FLIPR for the Ca^2+ measurement.
(§5) The Ca^2+-dependent fluorescence is measured here before and after addition of substances (λex=488 nm, λem=540 nm). Quantification is by measurement of the highest fluorescence intensity (FC, fluorescence counts) over time.
(§6) The FLIPR protocol consists of 2 additions of substance. Test substances (10 μM) are first pipetted on to the cells and the Ca^2+ inflow is compared with the control (hB1R: Lys-Des-Arg^9-bradykinin>=50 nM; rB1R: Des-Arg^9-bradykinin 10 μM). This gives the result in % activation based on the Ca^2+ signal after addition of Lys-Des-Arg^9-bradykinin (>=50 nM) or Des-Arg^9-bradykinin (10 μM). After incubation for 10-20 minutes, Lys-Des-Arg^9-bradykinin (hB1R) or Des-Arg^9-bradykinin (rB1R) in the concentration of the EC80 is applied and the inflow of Ca^2+ is likewise determined. Antagonists lead to a suppression of the Ca^2+ inflow. % inhibition compared with the maximum achievable inhibition is calculated.
(§7) In order to determine the IC50 value, the substances are added in various concentrations. […]

[2] = target: T2, B1R receptor of the rat (rB1R) (Rattus norvegicus, UniProt P97583); assay: Functional investigation on the bradykinin receptor 1 (B1R), FLIPR Ca2+ assay, rB1R cells; type: cell-based
T2 construct: expressed in transfected cells; host or cells: CHO K1 cells
T2 sequence (P97583 1-337): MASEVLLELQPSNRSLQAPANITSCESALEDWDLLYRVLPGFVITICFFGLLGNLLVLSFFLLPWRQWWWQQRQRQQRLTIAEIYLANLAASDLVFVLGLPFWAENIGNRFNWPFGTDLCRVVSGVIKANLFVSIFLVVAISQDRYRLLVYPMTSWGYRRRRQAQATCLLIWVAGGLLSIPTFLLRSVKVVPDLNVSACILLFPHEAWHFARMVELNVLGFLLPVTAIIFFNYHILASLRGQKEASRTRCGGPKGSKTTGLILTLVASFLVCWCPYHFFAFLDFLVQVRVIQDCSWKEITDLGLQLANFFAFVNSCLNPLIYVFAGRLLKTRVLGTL
Experimental: as §1, §2, §3, §4, §5, §6, §7

inhibition at 10 µM [1]	inhibition at 10 µM [2]	% Inhibition (human B1R) at 10 μM ([1]; 10 µM)	% Inhibition (rat B1R) at 10 μM ([2]; 10 µM)	SMILES
98%	96%			CN(Cc1nc2cccc(C(=O)N3CCC4(CC3)CCN(c3ccncc3)CC4)c2[nH]1)S(=O)(=O)c1cccc2ccccc12 [I_07, N-methyl-N-[[7-(9-pyridin-4-yl-3,9-diazaspiro[5.5]undecane-3-carbonyl)-1H-benzoimidazol-2-yl]-methyl]-naphthalene-1-sulfonic acid amide]
72%	87%			COc1cc(C)c(S(=O)(=O)N(C)C(C)c2nc3cccc(C(=O)N4CCC5(CCN(C(=O)c6ccc(C#N)cc6)CC5)CC4)c3[nH]2)c(C)c1 (stereo not shown) [I_CC-49, N-[1-[7-[9-(4-Cyano-benzoyl)-3,9-diazaspiro[5.5]undecane-3-carbonyl]-1H-benzoimidazol-2-yl]-ethyl]-4-methoxy-N,2,6-trimethyl-benzenesulfonic acid amide]
71%	89%			COc1cc(C)c(S(=O)(=O)N(C)C(C)c2nc3cccc(C(=O)N4CCC5(CC4)CCN(C(=O)c4cc(C)nn4C(C)(C)C)CC5)c3[nH]2)c(C)c1 (stereo not shown) [I_CC-55, N-[1-[7-[9-(2-tert-Butyl-5-methyl-2H-pyrazole-3-carbonyl)-3,9-diazaspiro[5.5]undecane-3-carbonyl]-1H-benzoimidazol-2-yl]-ethyl]-4-methoxy-N,2,6-trimethyl-benzenesulfonic acid amide]
22%	103%			COc1cc(C)c(S(=O)(=O)N(C)C(C)c2nc3cccc(C(=O)N4CCC5(CC4)CCN(S(=O)(=O)c4ccc(F)cc4F)CC5)c3[nH]2)c(C)c1 (stereo not shown) [I_CC-57, N-[1-[7-[9-[(2,4-Difluoro-phenyl)sulfonyl]-3,9-diazaspiro[5.5]undecane-3-carbonyl]-1H-benzoimidazol-2-yl]-ethyl]-4-methoxy-N,2,6-trimethyl-benzenesulfonic acid amide]
100%	97%			Cc1cccc(Cl)c1S(=O)(=O)N(C)Cc1nc2cccc(C(=O)N3CCC4(CC3)CCN(c3ccncc3)C4)c2[nH]1 [I_CC-07, 2-chloro-N,6-dimethyl-N-[[7-(3-pyridin-4-yl-3,8-diazaspiro[4.5]decane-8-carbonyl)-1H-benzoimidazol-2-yl]-methyl]-benzenesulfonic acid amide]
10%	46%			CN(Cc1nc2cccc(C(=O)N3CCC4(CC3)C(=O)NCC4c3ccncc3)c2[nH]1)C(=O)c1ccccc1Cl (stereo not shown) [I_CC-02, 2-chloro-N-methyl-N-[[7-(4-oxo-1-pyridin-4-yl-3,8-diazaspiro[4.5]decane-8-carbonyl)-1H-benzoimidazol-2-yl]-methyl]-benzamide]
		98%	96%	COc1cc(C)c(S(=O)(=O)N(C)Cc2nc3cccc(C(=O)N4CCC5(CC4)CCN(c4ccncc4)CC5)c3[nH]2)c(C)c1 [I_01, 4-methoxy-N,2,6-trimethyl-N-[[7-(9-pyridin-4-yl-3,9-diazaspiro[5.5]undecane-3-carbonyl)-1H-benzoimidazol-2-yl]-methyl]-benzenesulfonic acid amide]
94%	90%			COc1cc(C)c(S(=O)(=O)N(C)C(C)c2nc3cccc(C(=O)N4CCC5(CC4)CCN(c4ccncc4)CC5)c3[nH]2)c(C)c1 (stereo not shown) [I_06, 4-methoxy-N,2,6-trimethyl-N-[1-[7-(9-pyridin-4-yl-3,9-diazaspiro[5.5]undecane-3-carbonyl)-1H-benzoimidazol-2-yl]-ethyl]-benzenesulfonic acid amide]
42%	89%			COc1cc(C)c(S(=O)(=O)N(C)C(C)c2nc3cccc(C(=O)N4CCC5(CCN(C(=O)c6ccc(C(F)(F)F)cn6)CC5)CC4)c3[nH]2)c(C)c1 (stereo not shown) [I_CC-46, 4-Methoxy-N,2,6-trimethyl-N-[1-[7-[9-[5-(trifluoromethyl)-pyridine-2-carbonyl]-3,9-diazaspiro[5.5]undecane-3-carbonyl]-1H-benzoimidazol-2-yl]-ethyl]-benzenesulfonic acid amide]
63%	104%			COc1cc(C)c(S(=O)(=O)N(C)C(C)c2nc3cccc(C(=O)N4CCC5(CCN(Cc6cc(F)ccc6F)CC5)CC4)c3[nH]2)c(C)c1 (stereo not shown) [I_CC-31, N-[1-[7-[9-[(2,5-Difluoro-phenyl)-methyl]-3,9-diazaspiro[5.5]undecane-3-carbonyl]-1H-benzoimidazol-2-yl]-ethyl]-4-methoxy-N,2,6-trimethyl-benzenesulfonic acid amide]
71%	49%			O=C1c2c(Cl)cccc2CN1Cc1nc2cccc(C(=O)N3CCC4(CC3)CCN(c3ccncc3)C4)c2[nH]1 [I_CC-13, 7-chloro-2-[[7-(3-pyridin-4-yl-3,8-diazaspiro[4.5]decane-8-carbonyl)-1H-benzoimidazol-2-yl]-methyl]-2,3-dihydro-isoindol-1-one]
20%	103%			COc1cc(C)c(S(=O)(=O)N(C)C(C)c2nc3cccc(C(=O)N4CCC5(CC4)CCN(S(=O)(=O)c4ccccc4C#N)CC5)c3[nH]2)c(C)c1 (stereo not shown) [I_CC-59, N-[1-[7-[9-[(2-Cyano-phenyl)sulfonyl]-3,9-diazaspiro[5.5]undecane-3-carbonyl]-1H-benzoimidazol-2-yl]-ethyl]-4-methoxy-N,2,6-trimethyl-benzenesulfonic acid amide]

SMILES	inhibition at 10 µM [1]	inhibition at 10 µM [2]	% Inhibition (human B1R) at 10 μM ([1]; 10 µM)	% Inhibition (rat B1R) at 10 μM ([2]; 10 µM)
COc1cc(C)c(S(=O)(=O)N(C)C(C)c2nc3cccc(C(=O)N4CCC5(CCN(Cc6c(F)cccc6Cl)CC5)CC4)c3[nH]2)c(C)c1 (stereo not shown) [I_CC-40, N-[1-[7-[9-[(2-Chloro-6-fluoro-phenyl)-methyl]-3,9-diazaspiro[5.5]undecane-3-carbonyl]-1H-benzoimidazol-2-yl]-ethyl]-4-methoxy-N,2,6-trimethyl-benzenesulfonic acid amide]	49%	99%		
Cc1cc(S(=O)(=O)N(C)Cc2nc3cccc(C(=O)N4CCC5(CC4)CCN(c4ccncc4)C5)c3[nH]2)c(C)cc1Cl [I_CC-10, 4-chloro-N,2,5-trimethyl-N-[[7-(3-pyridin-4-yl-3,8-diazaspiro[4.5]decane-8-carbonyl)-1H-benzoimidazol-2-yl]-methyl]-benzenesulfonic acid amide]	94%	88%		
